{"source": "patent US7994185B2", "about": "“Benzene sulfonamide thiazole and oxazole compounds” (Glaxo Smith Kline LLC, priority 2008, dated 2011)", "note": "pIC50: −log10 of the molar value. Counter-ions that a name gives are not always drawn.", "data": [{"target": "T1, BRAFV600E full-length (amino acids 2-766) (Homo sapiens, UniProt P15056, V600E)", "T1 construct": "His6-tagged BRAFV600E full-length (amino acids 2-766); His6; made in house; host or cells: baculovirus expression system (insect cells)", "T1 sequence (P15056 2-766 V600E)": "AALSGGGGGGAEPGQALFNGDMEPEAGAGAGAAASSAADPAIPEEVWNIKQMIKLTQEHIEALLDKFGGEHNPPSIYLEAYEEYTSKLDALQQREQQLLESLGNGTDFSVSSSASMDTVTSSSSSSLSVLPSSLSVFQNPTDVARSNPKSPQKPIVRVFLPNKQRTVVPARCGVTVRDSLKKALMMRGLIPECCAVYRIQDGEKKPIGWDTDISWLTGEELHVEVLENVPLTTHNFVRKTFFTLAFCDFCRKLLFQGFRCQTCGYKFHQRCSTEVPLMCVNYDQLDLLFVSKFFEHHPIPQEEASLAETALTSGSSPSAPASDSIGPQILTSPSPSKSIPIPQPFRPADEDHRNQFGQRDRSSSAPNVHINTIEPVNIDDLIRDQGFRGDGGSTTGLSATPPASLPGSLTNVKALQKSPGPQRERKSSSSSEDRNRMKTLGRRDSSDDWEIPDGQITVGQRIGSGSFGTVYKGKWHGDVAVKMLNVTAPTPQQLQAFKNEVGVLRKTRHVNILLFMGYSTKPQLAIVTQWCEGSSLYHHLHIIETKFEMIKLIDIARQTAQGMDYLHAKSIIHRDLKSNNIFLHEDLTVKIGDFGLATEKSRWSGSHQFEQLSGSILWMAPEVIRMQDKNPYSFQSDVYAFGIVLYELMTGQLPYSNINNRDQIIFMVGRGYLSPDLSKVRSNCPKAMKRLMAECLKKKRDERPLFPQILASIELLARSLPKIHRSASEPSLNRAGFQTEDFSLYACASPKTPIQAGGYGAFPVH", "test": "B-Raf Accelerated MEK ATPase assay (BRAMA)", "assay_type": "biochemical", "conditions": "B-Raf Activity, Table 1a; highest pIC50 for the one or more runs, categorized", "description": "(§1) Compounds of the present invention were tested for B-Raf protein serine kinase inhibitory activity in a B-Raf Accelerated MEK ATPase assay (BRAMA). […] The BRAMA assay is a high sensitivity assay which measures an intrinsic MEK-mediated ATP hydrolysis uncoupled from downstream ERK phosphorylation by coupling the formation of ADP to NADH oxidation through the enzymes pyruvate kinase and lactate dehydrogenase. When ADP production is initiated by addition of catalytic amounts of an activated Raf enzyme and non-phosphorylated MEK, one observes robust ADP production concomitant with Raf-mediated phosphorylation of MEK. The method is disclosed in: C. Rominger, M. Schaber, E. May. Assay for B-Raf Activity Based on Intrinsic MEK ATPase Activity.", "values": [{"smiles": "CC(C)c1nc(-c2cccc(NS(=O)(=O)c3cccc(F)c3)c2)c(-c2ccnc(NCC(N)=O)n2)s1", "note": "[Example 87, N^2-{4-[4-(3-{[(3-Fluorophenyl)sulfonyl]amino}phenyl)-2-(1-methylethyl)-1,3-thiazol-5-yl]-2-pyrimidinyl}glycinamide]", "pIC50": "> 7.00"}, {"smiles": "CC(C)(C)c1nc(-c2ccc(F)c(NS(=O)(=O)c3c(F)cccc3F)c2)c(-c2ccnc(NCCS(C)(=O)=O)n2)s1", "note": "[Example 10, N-{5-[2-(1,1-Dimethylethyl)-5-(2-{[2-(methylsulfonyl)ethyl]amino}-4-pyrimidinyl)-1,3-thiazol-4-yl]-2-fluorophenyl}-2,6-difluorobenzenesulfonamide]", "pIC50": "> 7.00"}, {"smiles": "CC(C)c1nc(-c2cccc(NS(=O)(=O)c3cccc(F)c3)c2)c(-c2ccnc(NC3CC3)n2)s1", "note": "[Example 89, N-{3-[5-[2-(Cyclopropylamino)-4-pyrimidinyl]-2-(1-methylethyl)-1,3-thiazol-4-yl]phenyl}-3-fluorobenzenesulfonamide]", "pIC50": "> 7.00"}, {"smiles": "CC(C)c1nc(-c2cccc(NS(=O)(=O)c3c(F)cccc3F)c2)c(-c2ccnc(NCCS(C)(=O)=O)n2)s1", "note": "[Example 1, 2,6-Difluoro-N-{3-[2-(1-methylethyl)-5-(2-{[2-(methylsulfonyl)ethyl]amino}-4-pyrimidinyl)-1,3-thiazol-4-yl]phenyl}benzenesulfonamide]", "pIC50": "> 7.00"}, {"smiles": "CC(C)c1nc(-c2cccc(NS(=O)(=O)c3c(F)cccc3F)c2F)c(-c2ccnc(NCCS(C)(=O)=O)n2)s1", "note": "[Example 11, 2,6-Difluoro-N-{2-fluoro-3-[2-(1-methylethyl)-5-(2-{[2-(methylsulfonyl)ethyl]amino}-4-pyrimidinyl)-1,3-thiazol-4-yl]phenyl}benzenesulfonamide]", "pIC50": "> 7.00"}, {"smiles": "Nc1nccc(-c2scnc2-c2cccc(NS(=O)(=O)c3c(F)cccc3F)c2)n1", "note": "[Example 114, N-{3-[5-(2-Amino-4-pyrimidinyl)-1,3-thiazol-4-yl]phenyl}-2,6-difluorobenzenesulfonamide]", "pIC50": "6.00 to 7.00"}]}, {"target": "T1, BRAFV600E full-length (amino acids 2-766)", "test": "B-Raf Accelerated MEK ATPase assay (BRAMA)", "assay_type": "biochemical", "conditions": "B-Raf pIC50, Table 1b; later runs, average pIC50 for the one or more runs, categorized", "description": "as §1", "values": [{"smiles": "CC1(c2nc(-c3cccc(NS(=O)(=O)c4ccoc4)c3F)c(-c3ccnc(N)n3)s2)CCNCC1", "note": "[Example 319, N-{3-[5-(2-amino-4-pyrimidinyl)-2-(4-methyl-4-piperidinyl)-1,3-thiazol-4-yl]-2-fluorophenyl}-3-furansulfonamide]", "pIC50": "≥ 8.50"}, {"smiles": "Cc1nccc(-c2sc(C3(C)CCNCC3)nc2-c2cccc(NS(=O)(=O)c3ccoc3)c2F)n1", "note": "[Example 320, N-{2-fluoro-3-[2-(4-methyl-4-piperidinyl)-5-(2-methyl-4-pyrimidinyl)-1,3-thiazol-4-yl]phenyl}-3-furansulfonamide]", "pIC50": "≥ 8.50"}, {"smiles": "CC(C)c1nc(-c2cccc(NS(=O)(=O)c3cccc(F)c3)c2)c(-c2ccnc(NC3CC3)n2)s1", "note": "[Example 89, N-{3-[5-[2-(Cyclopropylamino)-4-pyrimidinyl]-2-(1-methylethyl)-1,3-thiazol-4-yl]phenyl}-3-fluorobenzenesulfonamide]", "pIC50": "6.00 to 7.50"}, {"smiles": "CC(C)(C(N)=O)c1nc(-c2cccc(NS(=O)(=O)c3c(F)cccc3F)c2F)c(-c2ccnc(N)n2)s1", "note": "[Example 309, 2-[5-(2-Amino-4-pyrimidinyl)-4-(3-{[(2,6-difluorophenyl)sulfonyl]amino}-2-fluorophenyl)-1,3-thiazol-2-yl]-2-methylpropanamide]", "pIC50": "≥ 8.50"}, {"smiles": "CC(C)c1nc(-c2cccc(NS(=O)(=O)c3c(F)cccc3F)c2)c(-c2ccnc(NCCS(C)(=O)=O)n2)s1", "note": "[Example 1, 2,6-Difluoro-N-{3-[2-(1-methylethyl)-5-(2-{[2-(methylsulfonyl)ethyl]amino}-4-pyrimidinyl)-1,3-thiazol-4-yl]phenyl}benzenesulfonamide]", "pIC50": "≥ 8.50"}, {"smiles": "CC(C)(C)c1nc(-c2cccc(NS(=O)(=O)c3c(F)cccc3F)c2F)c(-c2ccnc(N)n2)o1", "note": "[Example 296, N-{3-[5-(2-amino-4-pyrimidinyl)-2-(1,1-dimethylethyl)-1,3-oxazol-4-yl]-2-fluorophenyl}-2,6-difluorobenzenesulfonamide]", "pIC50": "≥ 8.50"}, {"smiles": "CC(C)(C)c1nc(-c2cccc(NS(=O)(=O)c3c(F)cccc3F)c2F)c(-c2ccnc(NCCO)n2)s1", "note": "[Example 293, N-[3-(2-(1,1-dimethylethyl)-5-{2-[(2-hydroxyethyl)amino]-4-pyrimidinyl}-1,3-thiazol-4-yl)-2-fluorophenyl]-2,6-difluorobenzenesulfonamide]", "pIC50": "≥ 8.50"}, {"smiles": "O=S(=O)(Nc1cccc(-c2nc(C3CCOCC3)sc2-c2ccnc(NCCO)n2)c1F)c1ccoc1", "note": "[Example 300, N-{2-fluoro-3-[5-{2-[(2-hydroxyethyl)amino]-4-pyrimidinyl}-2-(tetrahydro-2H-pyran-4-yl)-1,3-thiazol-4-yl]phenyl}-3-furansulfonamide]", "pIC50": "≥ 8.50"}, {"smiles": "CC(C)CNc1nccc(-c2sc(C3CCOCC3)nc2-c2cccc(NS(=O)(=O)c3ccoc3)c2F)n1", "note": "[Example 304, N-{2-fluoro-3-[5-{2-[(2-methylpropyl)amino]-4-pyrimidinyl}-2-(tetrahydro-2H-pyran-4-yl)-1,3-thiazol-4-yl]phenyl}-3-furansulfonamide]", "pIC50": "≥ 8.50"}, {"smiles": "CC(C)(C)c1nc(-c2cccc(NS(=O)(=O)c3c(F)cccc3F)c2F)c(-c2ccnc(NCCC#N)n2)s1", "note": "[Example 292, N-{3-[5-{2-[(2-cyanoethyl)amino]-4-pyrimidinyl}-2-(1,1-dimethylethyl)-1,3-thiazol-4-yl]-2-fluorophenyl}-2,6-difluorobenzenesulfonamide]", "pIC50": "≥ 8.50"}, {"smiles": "CC(C)(C)c1nc(-c2cccc(NS(=O)(=O)c3ccco3)c2Cl)c(-c2ccncn2)s1", "note": "[Example 261, N-{2-chloro-3-[2-(1,1-dimethylethyl)-5-(4-pyrimidinyl)-1,3-thiazol-4-yl]phenyl}-2-furansulfonamide]", "pIC50": "≥ 8.50"}, {"smiles": "CC(C)c1nc(-c2cccc(NS(=O)(=O)c3c(F)cccc3F)c2F)c(-c2ccnc(NCCS(C)(=O)=O)n2)s1", "note": "[Example 11, 2,6-Difluoro-N-{2-fluoro-3-[2-(1-methylethyl)-5-(2-{[2-(methylsulfonyl)ethyl]amino}-4-pyrimidinyl)-1,3-thiazol-4-yl]phenyl}benzenesulfonamide]", "pIC50": "≥ 8.50"}, {"smiles": "CC(C)(C)c1nc(-c2c(F)ccc(NS(=O)(=O)c3cc(F)ccc3F)c2F)c(-c2ccncn2)s1", "note": "[Example 260, N-{3-[2-(1,1-dimethylethyl)-5-(4-pyrimidinyl)-1,3-thiazol-4-yl]-2,4-difluorophenyl}-2,5-difluorobenzenesulfonamide]", "pIC50": "≥ 8.50"}, {"smiles": "Nc1nccc(-c2scnc2-c2cccc(NS(=O)(=O)c3c(F)cccc3F)c2)n1", "note": "[Example 114, N-{3-[5-(2-Amino-4-pyrimidinyl)-1,3-thiazol-4-yl]phenyl}-2,6-difluorobenzenesulfonamide]", "pIC50": "6.00 to 7.50"}, {"smiles": "O=S(=O)(Nc1cccc(-c2nc(C3CCOCC3)sc2-c2ccnc(NC3CCOCC3)n2)c1F)c1ccoc1", "note": "[Example 305, N-(2-fluoro-3-{2-(tetrahydro-2H-pyran-4-yl)-5-[2-(tetrahydro-2H-pyran-4-ylamino)-4-pyrimidinyl]-1,3-thiazol-4-yl}phenyl)-3-furansulfonamide]", "pIC50": "≥ 8.50"}, {"smiles": "Cc1nccc(-c2sc(C(C)(C)N)nc2-c2cccc(NS(=O)(=O)c3c(F)cccc3F)c2F)n1", "note": "[Example 310, N-{3-[2-(1-amino-1-methylethyl)-5-(2-methyl-4-pyrimidinyl)-1,3-thiazol-4-yl]-2-fluorophenyl}-2,6-difluorobenzenesulfonamide]", "pIC50": "6.00 to 7.50"}, {"smiles": "Cn1ccc(S(=O)(=O)Nc2cccc(-c3nc(C4CCOCC4)sc3-c3ccnc(N)n3)c2F)n1", "note": "[Example 289, N-{3-[5-(2-amino-4-pyrimidinyl)-2-(tetrahydro-2H-pyran-4-yl)-1,3-thiazol-4-yl]-2-fluorophenyl}-1-methyl-1H-pyrazole-3-sulfonamide hydrochloride]", "pIC50": "6.00 to 7.50"}, {"smiles": "Nc1nccc(-c2sc(C3CCNCC3)nc2-c2cccc(NS(=O)(=O)c3ccoc3)c2F)n1", "note": "[Example 324, N-{3-[5-(2-amino-4-pyrimidinyl)-2-(4-piperidinyl)-1,3-thiazol-4-yl]-2-fluorophenyl}-3-furansulfonamide]", "pIC50": "≥ 8.50"}]}, {"target": "T1, BRAFV600E full-length (amino acids 2-766)", "test": "B-Raf Accelerated MEK ATPase assay (BRAMA)", "assay_type": "biochemical", "conditions": "Table 1a; highest pIC50 for the one or more runs, categorized; read-out: B-Raf Activity", "description": "as §1", "values": [{"smiles": "COCCCNc1nccc(-c2sc(C(C)C)nc2-c2ccc(F)c(NS(=O)(=O)c3c(F)cccc3F)c2)n1", "note": "[Example 174]", "pIC50": "6.00 to 7.00"}, {"smiles": "CC(C)c1nc(-c2ccc(F)c(NS(=O)(=O)c3c(F)cccc3F)c2)c(-c2ccnc(NCCCN(C)C)n2)s1", "note": "[Example 169]", "pIC50": "< 6.00"}, {"smiles": "CC(C)c1nc(-c2ccc(F)c(NS(=O)(=O)c3c(F)cccc3F)c2)c(-c2ccnc(NCCCCN(C)C)n2)s1", "note": "[Example 173]", "pIC50": "6.00 to 7.00"}, {"smiles": "CC(C)c1nc(-c2ccc(F)c(NS(=O)(=O)c3c(F)cccc3F)c2)c(-c2ccnc(NCCOCCO)n2)s1", "note": "[Example 172]", "pIC50": "6.00 to 7.00"}, {"smiles": "CC(C)c1nc(-c2ccc(F)c(NS(=O)(=O)c3c(F)cccc3F)c2)c(-c2ccnc(NCCN3CCCC3)n2)s1", "note": "[Example 170]", "pIC50": "< 6.00"}]}, {"target": "T1, BRAFV600E full-length (amino acids 2-766)", "test": "B-Raf Accelerated MEK ATPase assay (BRAMA)", "assay_type": "biochemical", "conditions": "Table 1b; later runs, average pIC50 for the one or more runs, categorized; read-out: B-Raf pIC50 (converted)", "description": "as §1", "units": {"IC50": "nM"}, "values": [{"smiles": "CC(C)c1nc(-c2cccc(NS(=O)(=O)c3cccc(F)c3)c2)c(-c2ccnc(NCC(N)=O)n2)s1", "note": "[Example 87, N^2-{4-[4-(3-{[(3-Fluorophenyl)sulfonyl]amino}phenyl)-2-(1-methylethyl)-1,3-thiazol-5-yl]-2-pyrimidinyl}glycinamide]", "IC50": "3.16 to 31.6"}, {"smiles": "CC(C)(C)c1nc(-c2ccc(F)c(NS(=O)(=O)c3c(F)cccc3F)c2)c(-c2ccnc(NCCS(C)(=O)=O)n2)s1", "note": "[Example 10, N-{5-[2-(1,1-Dimethylethyl)-5-(2-{[2-(methylsulfonyl)ethyl]amino}-4-pyrimidinyl)-1,3-thiazol-4-yl]-2-fluorophenyl}-2,6-difluorobenzenesulfonamide]", "IC50": "3.16 to 31.6"}, {"smiles": "CC(C)C(=O)NCc1nccc(-c2sc(N3CCOCC3)nc2-c2cccc(NS(=O)(=O)c3cc(F)ccc3F)c2F)n1", "note": "[Example 275, N-({4-[4-(3-{[(2,5-difluorophenyl)sulfonyl]amino}-2-fluorophenyl)-2-(4-morpholinyl)-1,3-thiazol-5-yl]-2-pyrimidinyl}methyl)-2-methylpropanamide]", "IC50": "3.16 to 31.6"}, {"smiles": "Cc1nccc(-c2sc(C3CCOCC3)nc2-c2cccc(NS(=O)(=O)c3c(F)cccc3F)c2F)n1", "note": "[Example 315, 2,6-difluoro-N-{2-fluoro-3-[5-(2-methyl-4-pyrimidinyl)-2-(tetrahydro-2H-pyran-4-yl)-1,3-thiazol-4-yl]phenyl}benzenesulfonamide]", "IC50": "3.16 to 31.6"}, {"smiles": "Cc1nccc(-c2sc(C3CCNCC3)nc2-c2cccc(NS(=O)(=O)c3ccoc3)c2F)n1", "note": "[Example 323, N-{2-fluoro-3-[5-(2-methyl-4-pyrimidinyl)-2-(4-piperidinyl)-1,3-thiazol-4-yl]phenyl}-3-furansulfonamide]", "IC50": "3.16 to 31.6"}, {"smiles": "Nc1nccc(-c2sc(C3CCOCC3)nc2-c2cccc(NS(=O)(=O)c3ccccn3)c2F)n1", "note": "[Example 279, N-{3-[5-(2-amino-4-pyrimidinyl)-2-(tetrahydro-2H-pyran-4-yl)-1,3-thiazol-4-yl]-2-fluorophenyl}-2-pyridinesulfonamide]", "IC50": "3.16 to 31.6"}, {"smiles": "CCc1nc(-c2cccc(NS(=O)(=O)c3c(F)cccc3F)c2F)c(-c2ccnc(N)n2)s1", "note": "[Example 257, N-{3-[5-(2-amino-4-pyrimidinyl)-2-ethyl-1,3-thiazol-4-yl]-2-fluorophenyl}-2,6-difluorobenzenesulfonamide]", "IC50": "3.16 to 31.6"}]}]}
